Tests used:
[1] = system: 11 human cyclins (D1/2/3, E1/2, A1/2, B1/2/3 and F); assay: SIMBA, cyclin binding and specificity across the cyclin panel; assay type: cell-based; conditions: result in words; for cyclin specificity in SIMBA: 13-mer peptides centered on P0; for cyclin binding in the tiled library SIMBA screen: tiled 16-mer peptides
human cyclin A2 = assay: Proteomic peptide phage display; assay type: binding; conditions: result in words; HD2 library of 16-mer peptides, four selection rounds
human cyclin B1 = assay: Proteomic peptide phage display; assay type: binding; conditions: result in words; HD2 library of 16-mer peptides, four selection rounds

DDIVSKLVFDFVE [DBF4] was tested, and the “cyclin specificity in SIMBA” value [1] was “bound cyclin B1 specifically”.

With HELFQRLDFDNDG [DNAH7] the “cyclin specificity in SIMBA” value [1] was “bound cyclin B1 specifically”.

With KAIRKLHFEDE [INSM1] the “cyclin specificity in SIMBA” value [1] was “bind to members of all four families” and the “cyclin binding in the tiled library SIMBA screen” value [1] was “cyclin D1-binding motif”.

In the case of PPARRRLRLSVDE [CDT1], the “cyclin specificity in SIMBA” value [1] is reported as “bound preferentially to cyclin A2”.

PRARKRLELGNLG [ORC1] was tested, and the “cyclin specificity in SIMBA” value [1] was “bound preferentially to cyclin A2” and the “cyclin specificity in SIMBA” value ([1]; listed as ORC1 RxL) was “cyclin A-specific”.

QLRRQLSFSED [MICAL3] was tested, and the “cyclin binding in the tiled library SIMBA screen” value [1] was “strong B1-binding motif”.

SKACRRLFGPVDS [CDKN1A (p21)] was tested, and the “cyclin specificity in SIMBA” value [1] was “bound all cyclin types except B”.

In the case of SLVVGKLSFDSSP [CDC42EP1], the “cyclin specificity in SIMBA” value [1] is reported as “bound cyclin B1 specifically”.

SNARRSLNFGGST [SCAPER] was tested, and the “cyclin specificity in SIMBA” value [1] was “bound preferentially to cyclin A2”.

In the case of VKTKKRLNFDDKV [CENPC], the “cyclin specificity in SIMBA” value [1] is reported as “bound preferentially to cyclin A2”.

For VSAVQKLDFSDTMVQQ [PKN2 peptide], the “enrichment in ProP-PD selection, cyclin A2” value (human cyclin A2) was “dominated” and the “enrichment in ProP-PD selection, cyclin B1” value (human cyclin B1) was “dominated”.

In the case of YKVKRRLVFGADD [MuHV-1 M97], the “cyclin specificity in SIMBA” value [1] is reported as “bind to members of all four families”.
